Test results as given in patent US20210269434A1, “TRICYCLIC COMPOUNDS AS INHIBITORS OF KRAS” (Incyte Corporation, priority 2020, published 2021).

What was measured:
[1] = target: KRAS G12C (Homo sapiens, UniProt P01116, G12C); experiment: GDP-GTP exchange assay (KRAS_G12C exchange); format: biochemical; conditions: bodipy-GDP loaded KRAS G12C 2.5 nM, SOS1 150 nM, GppNHp; 2 hours pre-incubation, 2 hours reaction; read-out: G12C_exchange
Method: Example A. GDP-GTP Exchange Assay
The inhibitor potency of the exemplified compounds was determined in a fluorescence based guanine nucleotide exchange assay, which measures the exchange of bodipy-GDP (fluorescently labeled GDP) for GppNHp (Non-hydrolyzable GTP analog) to generate the active state of KRAS in the presence of SOS1 (guanine nucleotide exchange factor). Inhibitors were serially diluted in DMSO and a volume of 0.1 μL was transferred to the wells of a black low volume 384-well plate. 5 μL/well volume of bodipy-loaded KRAS G12C diluted to 5 nM in assay buffer (25 mM Hepes pH 7.5, 50 mM NaCl, 10 mM MgCl2 and 0.01% Brij-35) was added to the plate and pre-incubated with inhibitor for 2 hours at ambient temperature. Appropriate controls (enzyme with no inhibitor or with a G12C inhibitor (AMG-510)) were included on the plate. The exchange was initiated by the addition of a 5 μL/well volume containing 1 mM GppNHp and 300 nM SOS1 in assay buffer. The 10 μL/well reaction concentration of the bodipy-loaded KRAS G12C, GppNHp, and SOS1 were 2.5 nM, 500 uM, and 150 nM, respectively. The reaction plates were incubated at ambient temperature for 2 hours, a time estimated for complete GDP-GTP exchange in the absence of inhibitor. For the KRAS G12D and G12V mutants, similar guanine nucleotide exchange assays were used with 2.5 nM as final concentration for the bodipy loaded KRAS proteins and with 4 hours and 3 hours incubation after adding GppNHp-SOS1 mixture for G12D and G12V respectively. A cyclic peptide described to selectively bind G12D mutant (Sakamoto et al., BBRC 484.3 (2017), 605-611) or internal compounds with confirmed binding were used as positive controls in the assay plates. Fluorescence intensities were measured on a PheraStar plate reader instrument (BMG Labtech) with excitation at 485 nm and emission at 520 nm.
Either GraphPad prism or XLfit was used to analyze the data. The IC50 values were derived by fitting the data to a four parameter logistic equation producing a sigmoidal dose-response curve with a variable Hill coefficient. Prism equation: Y=Bottom+(Top−Bottom)/(1+10^((Log lC50−X)*Hill slope)); XLfit equation: Y=(A+((B−A)/(1+((X/C)^D)))) where X is the logarithm of inhibitor concentration and Y is the response.

[2] = system: MIA PaCa-2 (KRAS G12C) cells; experiment: Cellular pERK HTRF assay (KRAS_G12C pERK); format: cell-based, human; conditions: Homo sapiens, MIA PaCa-2, 4 hours incubation, read-out: G12C_pERK
Method: Example C: Cellular pERK HTRF Assay
MIA PaCa-2 (KRAS G12C; ATCC® CRL-1420), A427 (KRAS G12D; ATCC® HTB53), HPAF-II (KRAS G12D; ATCC® CRL-1997) and NCI-H838 (KRAS WT; ATCC® CRL-5844) cells are purchased from ATCC and maintained in RPMI 1640 media supplemented with 10% FBS (Gibco/Life Technologies). The cells are plated at 5000 cells per well (8 uL) into Greiner 384-well low volume, flat-bottom, tissue culture treated white plates and incubated overnight at 37° C., 5% CO2. The next morning, test compound stock solutions are diluted in media at 3× the final concentration, and 4 uL are added to the cells. The plate is mixed by gentle rotation for 30 seconds (250 rpm) at room temperature. The cells are incubated with the KRAS G12C and G12D compounds for 4 hours or 2 hours respectively at 37° C., 5% CO2.
4 uL of 4× lysis buffer with blocking reagent (1:25) (Cisbio) are added to each well and plates are rotated gently (300 rpm) for 30 minutes at room temperature. 4 uL per well of Cisbio anti Phospho-ERK 1/2 d2 is mixed with anti Phospho-ERK 1/2 Cryptate (1:1) are added to each well, mixed by rotation and incubated overnight in the dark at room temperature. Plates are read on the Pherastar plate reader at 665 nm and 620 nm wavelengths. IC50 determination is performed by fitting the curve of inhibitor percent inhibition versus the log of the inhibitor concentration using the GraphPad Prism 7 software.

Sequence of KRAS G12C (P01116 1-188 isoform P01116-2 G12C): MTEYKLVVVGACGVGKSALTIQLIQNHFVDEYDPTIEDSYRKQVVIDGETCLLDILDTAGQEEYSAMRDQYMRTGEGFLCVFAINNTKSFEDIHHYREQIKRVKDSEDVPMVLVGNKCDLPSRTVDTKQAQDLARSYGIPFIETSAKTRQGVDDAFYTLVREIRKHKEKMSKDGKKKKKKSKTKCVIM

SMILES	IC50 [1] [nM]	IC50 [2] [nM]
COC/C=C/C(=O)N1CC[C@H](n2nnc3c(N4CC(C)(N(C)C)C4)nc4c(F)c(-c5c(C)c(Cl)cc6[nH]ncc56)c(C)cc4c32)C[C@H]1CC#N [Example 195a, 2-((2S,4S)-4-(7-(6-chloro-5-methyl-1H-indazol-4-yl)-4-(3-(dimethylamino)-3-methylazetidin-1-yl)-6-fluoro-8-methyl-1H-[1,2,3]triazolo[4,5-c]quinolin-1-yl)-1-((E)-4-methoxybut-2-enoyl)piperidin-2-yl)acetonitrile]	≤ 100	≤ 100
COC/C=C/C(=O)N1CC[C@H](n2nnc3c(OC[C@@H]4CCCN4C)nc4c(F)c(-c5c(C)c(Cl)cc6[nH]ncc56)c(Cl)cc4c32)C[C@H]1CC#N (single isomer, unassigned) [Example 191a]	≤ 100	≤ 100
CC#CC(=O)N1CC[C@H](n2nnc3c(OC[C@@H]4CCCN4C)nc4c(F)c(-c5cccc(C)c5C)c(C)cc4c32)C[C@H]1CC#N [Example 139, 2-((2S,4S)-1-(but-2-ynoyl)-4-(7-(2,3-dimethylphenyl)-6-fluoro-8-methyl-4-(((S)-1-methylpyrrolidin-2-yl)methoxy)-1H-[1,2,3]triazolo[4,5-c]quinolin-1-yl)piperidin-2-yl)acetonitrile]	≤ 100	≤ 100
CC#CC(=O)N1CCC(n2nnc3c(N4CC(C)(N(C)C)C4)nc4c(F)c(-c5cccc6cccc(Cl)c56)c(Cl)cc4c32)C[C@H]1CC#N (single isomer, unassigned) [Example 218a]	≤ 100	≤ 100
Cc1nccn1-c1nc2c(F)c(-c3ccccc3)c(Cl)cc2c2c1ncn2[C@H]1CCN(C(=O)/C=C/CN(C)C)[C@H](CC#N)C1 [Example 151, 2-((2S,4S)-4-(8-chloro-6-fluoro-4-(2-methyl-1H-imidazol-1-yl)-7-phenyl-1H-imidazo[4,5-c]quinolin-1-yl)-1-((E)-4-(dimethylamino)but-2-enoyl)piperidin-2-yl)acetonitrile]	≤ 100	≤ 100
C=C(F)C(=O)N1CC[C@H](n2nnc3c(OC[C@@H]4CCCN4C)nc4c(F)c(-c5c(C)c(Cl)cc6[nH]ncc56)c(Cl)cc4c32)C[C@H]1CC#N [Example 192, 2-((2S,4S)-4-(8-chloro-7-(6-chloro-5-methyl-1H-indazol-4-yl)-6-fluoro-4-(((S)-1-methylpyrrolidin-2-yl)methoxy)-1H-[1,2,3]triazolo[4,5-c]quinolin-1-yl)-1-(2-fluoroacryloyl)piperidin-2-yl)acetonitrile]	≤ 100	≤ 100
CC#CC(=O)N1CC[C@H](n2cnc3c(N4CC5(CCCN5C)C4)nc4c(F)c(-c5c(C)c(Cl)cc6[nH]ncc56)c(Cl)cc4c32)C[C@H]1CC#N [Example 83a, 2-((2S,4S)-1-(but-2-ynoyl)-4-(8-chloro-7-(6-chloro-5-methyl-1H-indazol-4-yl)-6-fluoro-4-(5-methyl-2,5-diazaspiro[3.4]octan-2-yl)-1H-imidazo[4,5-c]quinolin-1-yl)piperidin-2-yl)acetonitrile]	≤ 100	≤ 100
C=CC(=O)N1CC[C@H](n2cnc3c(N4CC(N(C)C)C4)nc4c(F)c(-c5ccccc5)c(Cl)cc4c32)C[C@H]1CC#N [Example 45, 2-((2S,4S)-1-acryloyl-4-(8-chloro-4-(3-(dimethylamino)azetidin-1-yl)-6-fluoro-7-phenyl-1H-imidazo[4,5-c]quinolin-1-yl)piperidin-2-yl)acetonitrile]	≤ 100	≤ 100
Cc1cc2c(nc(N3CC(N(C)C)C3)c3nnn([C@H]4CCN(C(=O)/C=C/CN(C)C)[C@H](CC#N)C4)c32)c(F)c1-c1ccccc1C(F)(F)F (single isomer, unassigned) [Example 163a]	≤ 100	≤ 100
COC/C=C/C(=O)N1CC[C@H](n2nnc3c(N4CC(N(C)C)C4)nc4c(F)c(-c5c(C)c(Cl)cc6[nH]ncc56)c(Cl)cc4c32)C[C@H]1CC#N [Example 186a, 2-((2S,4S)-4-(8-chloro-7-(6-chloro-5-methyl-1H-indazol-4-yl)-4-(3-(dimethylamino)azetidin-1-yl)-6-fluoro-1H-[1,2,3]triazolo[4,5-c]quinolin-1-yl)-1-((E)-4-methoxybut-2-enoyl)piperidin-2-yl)acetonitrile]	≤ 100	≤ 100

Continued, values first:

IC50 [1] [nM]	IC50 [2] [nM]	SMILES
≤ 100	≤ 100	Cc1cccc(-c2c(C)cc3c(nc(OC[C@@H]4CCCN4C)c4nnn([C@H]5CCN(C(=O)/C=C/CF)[C@H](CC#N)C5)c43)c2F)c1C [Example 138, 2-((2S,4S)-4-(7-(2,3-dimethylphenyl)-6-fluoro-8-methyl-4-(((S)-1-methylpyrrolidin-2-yl)methoxy)-1H-[1,2,3]triazolo[4,5-c]quinolin-1-yl)-1-((E)-4-fluorobut-2-enoyl)piperidin-2-yl)acetonitrile]
≤ 100	≤ 100	C=CC(=O)N1CC[C@H](n2nnc3c(N4CC(C)(N(C)C)C4)nc4c(F)c(-c5cccc(Cl)c5C)c(C(F)(F)F)cc4c32)C[C@H]1CC#N (single isomer, unassigned) [Example 238a]
≤ 100	≤ 100	C=CC(=O)N1CC[C@H](n2nnc3c(N4CC(C)(N(C)C)C4)nc4c(F)c(-c5c(C)ccc6[nH]ncc56)c(C)cc4c32)C[C@H]1CC#N (single isomer, unassigned) [Example 200a]
≤ 100	1000 to 5000	C=CC(=O)N1CC(n2c(=O)[nH]c3c(=O)n(-c4c(C)ccnc4C(C)C)c4nc(-c5cc(O)cc6ccccc56)c(F)cc4c32)C1 [Example 26, 1-(1-acryloylazetidin-3-yl)-8-fluoro-7-(3-hydroxynaphthalen-1-yl)-5-(2-isopropyl-4-methylpyridin-3-yl)-3,5-dihydro-1H-imidazo[4,5-c][1,8]naphthyridine-2,4-dione]
≤ 100	≤ 100	C=CC(=O)N1CC[C@H](n2nnc3c(OC[C@@H]4CCCN4C)nc4c(F)c(-c5ccc(F)cc5)c(Cl)cc4c32)C[C@H]1CC#N [Example 131, 2-((2S,4S)-1-acryloyl-4-(8-chloro-6-fluoro-7-(4-fluorophenyl)-4-(((S)-1-methylpyrrolidin-2-yl)methoxy)-1H-[1,2,3]triazolo[4,5-c]quinolin-1-yl)piperidin-2-yl)acetonitrile]
≤ 100	≤ 100	CC#CC(=O)N1CC[C@H](n2cnc3c(N4CC(C)(N(C)C)C4)nc4c(F)c(-c5c(C)c(Cl)cc6[nH]ncc56)c(Cl)cc4c32)C[C@H]1CC#N [Example 81a, 2-((2S,4S)-1-(but-2-ynoyl)-4-(8-chloro-7-(6-chloro-5-methyl-1H-indazol-4-yl)-4-(3-(dimethyl-amino)-3-methylazetidin-1-yl)-6-fluoro-1H-imidazo[4,5-c]quinolin-1-yl)piperidin-2-yl)acetonitrile]
≤ 100	≤ 100	C=CC(=O)N1CC[C@H](n2nnc3c(O[C@@H](C)CN(C)C)nc4c(F)c(-c5cccc(C)c5C)c(C)cc4c32)C[C@H]1CC#N [Example 142, 2-((2S,4S)-1-acryloyl-4-(4-(((S)-1-(dimethylamino)propan-2-yl)oxy)-7-(2,3-dimethylphenyl)-6-fluoro-8-methyl-1H-[1,2,3]triazolo[4,5-c]quinolin-1-yl)piperidin-2-yl)acetonitrile]
